Results published in ChEMBL document CHEMBL1151121, “1H-nmr analysis of herbimycins and dihydro-herbimycins” (1988).
In brackets after ≈: the same amount, converted by molar mass.

How the values were obtained:
KB = experiment: Cytotoxicity against human KB cells; assay type: functional; details: read-out: ED50 (the source's name)
P388 = experiment: Cytotoxicity against mouse P388 cells; assay type: functional; details: read-out: ED50 (the source's name)

CO[C@H]1/C=C\C=C(/C)C(=O)NC2=CC(=O)C=C(C2=O)[C@H](OC)[C@@H](C)C[C@H](OC)[C@H](O)[C@@H](C)/C=C(\C)[C@@H]1OC(N)=O [HERBIMYCIN C]
EC50 (KB): 0.12 µg/mL (≈ 0.214 µM) | EC50 (P388): 0.17 µg/mL (≈ 0.303 µM)

CO[C@H]1[C@@H](OC)C[C@H](C)[C@@H](OC)c2cc(O)cc(c2O)NC(=O)/C(C)=C/C=C\[C@H](OC)[C@@H](OC(N)=O)/C(C)=C/[C@@H]1C [DIHYDRO-HERBIMYCIN A]
EC50 (KB): 0.3 µg/mL (≈ 0.52 µM) | EC50 (P388): 0.022 µg/mL (≈ 0.0381 µM)

CO[C@H]1/C=C\C=C(/C)C(=O)Nc2cc(O)cc(c2O)C[C@@H](C)C[C@H](OC)[C@H](O)[C@@H](C)/C=C(\C)[C@@H]1OC(N)=O
EC50 (KB): 3.49 µg/mL (≈ 6.55 µM) | EC50 (P388): 0.34 µg/mL (≈ 0.638 µM)

CO[C@H]1[C@@H](OC)C[C@H](C)[C@@H](OC)C2=CC(=O)C=C(NC(=O)/C(C)=C/C=C/[C@H](OC)[C@@H](OC(N)=O)/C(C)=C/[C@@H]1C)C2=O [HERBIMYCIN]
EC50 (KB): 0.12 µg/mL (≈ 0.209 µM) | EC50 (P388): 0.0051 µg/mL (≈ 0.00887 µM)
